In patent US5543426A, “Use of certain 3,7-disubstituted indole compounds for treating depression or cognitive disorders” (priority 1990, dated 1996):

What was measured:
Benzold Jarisch Reflex = assay: blockade of the Benzold Jarisch Reflex (method of Fozard); format: in vivo; conditions: read-out: ID50, blockade of the Benzold Jarisch Reflex
Procedure: Pharmacol., 326, 36-44 (1984). Example compound has an ID50 of 70 μg/kg.

5-HT3 binding sites = molecular target: T1, 5-HT3 binding sites (Mus musculus, UniProt P23979); assay: binding to 5-HT3 binding sites, N1E-115 cells (method of Hoyer and Neijt)
T1 construct: endogenous in cells; host or cells: N1E-115
Description: 1. their potent and selective binding properties to 5-HT3 binding sites, e.g. to N1E-115 cells measured according to the method disclosed by D. Hoyer and H.C. Neijt, Mol. Pharm., 33, 303-309.

gastric emptying in rats = assay: gastric emptying of glass spheres in rats; format: in vivo; conditions: Rattus norvegicus, ip, given 15 min before 25 glass spheres, emptying measured 5, 10, 15 and 30 min after, read-out: ED50, promoting effect on gastric emptying
Procedure: 2. their promoting effect on gastric emptying in rats as indicated in standard in vivo tests when administered i.p. at doses of about 0.01 to about 1 mg/kg. The compounds to be tested are administered 15 min. before the administration of 25 glass spheres and gastric emptying is measured 5, 10, 15 and 30 min. after administration of the spheres. Example compound has an ED50 of 0.2 mg/kg i.p.

mice = assay: social stress model: plasma corticosterone rise induced by an aggressive, inaccessible male mouse; format: in vivo; conditions: p.o., 0.1 to 1 mg/kg
Procedure: The compounds of the invention also reduce the plasma corticosterone rise induced in mice by the presence of an aggressive, but inaccessible male mouse. Compounds of the invention when given p.o. for 14 days at a dosage of from about 0.1 to 10 mg/kg restore the plasma corticosterone level to normal.
The Example compound is preferred.

T1 sequence (P23979 24-489): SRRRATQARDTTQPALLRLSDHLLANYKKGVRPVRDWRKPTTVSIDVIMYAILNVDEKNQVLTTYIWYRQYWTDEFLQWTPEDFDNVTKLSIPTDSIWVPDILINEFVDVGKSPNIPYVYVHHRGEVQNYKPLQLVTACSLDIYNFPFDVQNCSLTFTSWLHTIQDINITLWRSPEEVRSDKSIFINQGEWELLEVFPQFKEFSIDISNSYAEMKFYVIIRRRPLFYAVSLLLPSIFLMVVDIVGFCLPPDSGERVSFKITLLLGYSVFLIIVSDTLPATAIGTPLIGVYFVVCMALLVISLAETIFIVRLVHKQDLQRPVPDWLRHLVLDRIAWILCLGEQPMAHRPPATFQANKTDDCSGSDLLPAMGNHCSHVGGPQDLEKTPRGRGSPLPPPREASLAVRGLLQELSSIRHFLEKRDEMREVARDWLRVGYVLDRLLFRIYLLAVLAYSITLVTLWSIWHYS

`COc1cccc2c(C(=O)O[C@H]3C[C@H]4CC[C@@H](C3)N4C)c[nH]c12` [Example compound, 7-Methoxy-1H-indol-3-carboxylic acid-(1αH, 5αH)-8-methyl-8-aza-bicyclo3,2,1oct-3α-yl-ester] showed an ED50 (Benzold Jarisch Reflex) of 0.07 mg/kg, a Kd (5-HT3 binding sites) of 1.35 nM and an ED50 (gastric emptying in rats) of 0.2 mg/kg. For the same compound, the “stress-induced corticosterone concentration in plasma” value (mice) was “reduces the stress-induced corticosterone concentration in plasma”.
